Data from patent publication US8802597B2, “Herbicidal pyrimidines” (E I du Pont de Nemours and Company, priority 2003, dated 2014).

Experiments:
Type in all cases: in vivo
[1] = test system: barnyardgrass (Echinochloa crus-galli); test: Test B flooded paddy test; settings: Flood, 1000 g ai/ha; scale 0 (no effect) to 100 (complete control)
Outline: (§1)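 Plants were grown to the 2-leaf stage before treatment, then kept in a greenhouse for 13 to 15 days. Injury was rated visually against untreated controls on a 0 to 100 scale, where 0 is no effect and 100 is complete control.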

[2] = test system: umbrella sedge (Cyperus difformis); test: Test B flooded paddy test; settings: Flood, 1000 g ai/ha; scale 0 to 100
Outline: as §1

[3] = test system: duck salad (Heteranthera limosa); test: Test B flooded paddy test; settings: Flood, 1000 g ai/ha; scale 0 to 100
Outline: as §1

rice (Oryza sativa) = test: Test B flooded paddy test; settings: Flood, 1000 g ai/ha; scale 0 to 100
Outline: as §1

[4] = test system: velvetleaf (Abutilon theophrasti); test: Test B pre/postemergence
Text: (§2) Seeds selected from barnyardgrass (Echinochloa crus-galli), Surinam grass (Brachiaria decumbens), cocklebur (Xanthium strumarium), corn (Zea mays), crabgrass (Digitaria sanguinalis), giant foxtail (Setaria faberii), lambsquarters (Chenopodium album), morningglory (Ipomoea coccinea), pigweed (Amaranthus retroflexus), velvetleaf (Abutilon theophrasti), and wheat (Triticum aestivum) were planted and treated preemergence with test chemicals formulated in a non-phytotoxic solvent mixture which included a surfactant.
(§3) At the same time, plants selected from these crop and weed species and also blackgrass (Alopecurus myosuroides) and wild oat (Avena fatua) were treated with postemergence applications of test chemicals formulated in the same manner. Plants ranged in height from 2 to 18 cm (1- to 4-leaf stage) for postemergence treatments. Plant species in the flooded paddy test consisted of rice (Oryza sativa), umbrella sedge (Cyperus difformis), duck salad (Heteranthera limosa) and barnyardgrass (Echinochloa crus-galli) grown to the 2-leaf stage for testing. Treated plants and controls were maintained in a greenhouse for 13 to 15 days, after which time all species were compared to controls and visually evaluated. Plant response ratings, summarized in Table B, are based on a scale of 0 to 100 where 0 is no effect and 100 is complete control. A dash (-) response means no test result.

[5] = test system: cocklebur (Xanthium strumarium); test: Test B pre/postemergence; settings: for Plant response rating, Cocklebur: 250 g ai/ha
Text: as §2, §3

[6] = test system: wheat (Triticum aestivum); test: Test B pre/postemergence
Text: as §2, §3

[7] = test system: barnyardgrass (Echinochloa crus-galli); test: Test B pre/postemergence
Text: as §2, §3

[8] = test system: crabgrass (Digitaria sanguinalis); test: Test B pre/postemergence
Text: as §2, §3

corn (Zea mays) = test: Test B pre/postemergence
Text: as §2, §3

[9] = test system: giant foxtail (Setaria faberii); test: Test B pre/postemergence
Text: as §2, §3

[10] = test system: lambsquarters (Chenopodium album); test: Test B pre/postemergence
Text: as §2, §3

[11] = test system: Surinam grass (Brachiaria decumbens); test: Test B pre/postemergence
Text: as §2, §3

[12] = test system: morningglory (Ipomoea coccinea); test: Test B pre/postemergence
Text: as §2, §3

[13] = test system: pigweed (Amaranthus retroflexus); test: Test B pre/postemergence
Text: as §2, §3

wild oat (Avena fatua) = test: Test B postemergence
Outline: (§4)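 Under greenhouse conditions, seeded pots and young plants (1- to 4-leaf, 2 to 18 cm) were treated at the same time with test chemicals in a non-phytotoxic solvent mixture containing surfactant. Response was assessed visually after 13 to 15 days, from 0 (no effect) to 100 (complete control).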

[14] = test system: blackgrass (Alopecurus myosuroides); test: Test B postemergence
Outline: as §4

[15] = Postemergence, 62 g ai/ha, scale 0 to 100 (0 no effect, 100 complete control)
[16] = Postemergence, 250 g ai/ha, scale 0 to 100
[17] = Preemergence, 62 g ai/ha, scale 0 to 100, 0 no effect, 100 complete control
[18] = Preemergence, 250 g ai/ha, scale 0 to 100 (0 no effect, 100 complete control)
[19] = 62 g ai/ha, scale 0 to 100 (0 no effect, 100 complete control)

## CCOC(OCC)c1nc(C2CC2)nc(N)c1Br [Compound 45]
[1]
  Plant response rating, Barnyardgrass: 0
[2]
  Plant response rating, Sedge, Umbrella: 0
[3]
  Plant response rating, Ducksalad: 0
Rice (Oryza sativa)
  Plant response rating, Rice: 0
[4]; [15]
  Velvetleaf plant response rating: 0
[4]; [16]
  Plant response rating, Velvetleaf: 20
[4]; [17]
  Plant response rating, Velvetleaf: 0
[4]; [18]
  Plant response rating, Velvetleaf: 0
[5]; [15]
  Cocklebur plant response rating: 0
[5]; Postemergence, scale 0 to 100
  Plant response rating, Cocklebur: 10
[5]; Preemergence, scale 0 to 100 (0 no effect, 100 complete control)
  Plant response rating, Cocklebur: 0
[6]; [15]
  Wheat plant response rating: 0
[6]; [16]
  Plant response rating, Wheat: 0
[6]; [17]
  Plant response rating, Wheat: 0
[6]; [18]
  Plant response rating, Wheat: 0
[7]; [15]
  Barnyardgrass plant response rating: 0
[7]; [16]
  Plant response rating, Barnyardgrass: 0
[7]; [17]
  Plant response rating, Barnyardgrass: 0
[7]; [18]
  Plant response rating, Barnyardgrass: 0
[8]; [15]
  Crabgrass plant response rating: 0
[8]; [16]
  Plant response rating, Crabgrass: 20
[8]; [17]
  Plant response rating, Crabgrass: 0
[8]; [18]
  Plant response rating, Crabgrass: 0
Corn (Zea mays); [15]
  Corn plant response rating: 0
Corn (Zea mays); [16]
  Plant response rating, Corn: 0
Corn (Zea mays); [17]
  Plant response rating, Corn: 0
[9]; [15]
  Foxtail, Giant plant response rating: 0
[9]; [16]
  Plant response rating, Foxtail, Giant: 0
[9]; [17]
  Plant response rating, Foxtail, Giant: 0
[9]; [18]
  Plant response rating, Foxtail, Giant: 0
[10]; [15]
  Lambsquarters plant response rating: 10
[10]; [16]
  Plant response rating, Lambsquarters: 30
[10]; [17]
  Plant response rating, Lambsquarters: 0
[10]; [18]
  Plant response rating, Lambsquarters: 30
[11]; [15]
  Surinam Grass plant response rating: 0
[11]; [16]
  Plant response rating, Surinam Grass: 0
[11]; [17]
  Plant response rating, Surinam Grass: 0
[11]; [18]
  Plant response rating, Surinam Grass: 0
[12]; [15]
  Morningglory plant response rating: 40
[12]; [16]
  Plant response rating, Morningglory: 60
[12]; [17]
  Plant response rating, Morningglory: 30
[12]; [18]
  Plant response rating, Morningglory: 50
[13]; [15]
  Pigweed plant response rating: 30
[13]; [16]
  Plant response rating, Pigweed: 50
[13]; [17]
  Plant response rating, Pigweed: 0
[13]; [18]
  Plant response rating, Pigweed: 50
Wild oat (Avena fatua); [19]
  Oat, Wild plant response rating: 0
Wild oat (Avena fatua); 250 g ai/ha, scale 0 to 100
  Plant response rating, Oat, Wild: 0
[14]; [19]
  Blackgrass plant response rating: 0
[14]; 250 g ai/ha, scale 0 to 100
  Plant response rating, Blackgrass: 0
